# Source: US20230312587A1, “PTERIDINONE COMPOUNDS AND USES THEREOF” (Vertex Pharmaceutical Incorporated, priority 2018, published 2023)
# Test system: β-catenin-TCF-mediated reporter transcription activity in Colo 205 cells
# Experiment: Colo 205 reporter assay (TCF/LEF luciferase)
# Assay type: cell-based
# Settings: Colo 205 TCF/LEF luciferase reporter, five hours after addition of compound; read-out: TCF reporter Colo205 IC50
# How it was run: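 Luciferase signal from a TCF/LEF-driven reporter, stably integrated in Colo 205 colon cancer cells, was measured 5 h after compound addition.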
row,IC50 [nM],Compound
1,< 300,"(7S)-7-(2-hydroxyethyl)-4-methyl-2-(((1-((6-(trifluoromethyl)pyridin-3-yl)methyl)-1H-pyrazol-4-yl)methyl)amino)-7,8-dihydropteridin-6(5H)-one [Compound 440]"
2,< 300,"(7S)-4,5,7,8-tetramethyl-2-((trans-3-(3,4,5-trifluorophenoxy)cyclopentyl)amino)-7,8-dihydropteridin-6(5H)-one [Compound 269]"
3,300 to 1000,"COC1(C2C(=O)Nc3c(C)nc(NCc4cnn(Cc5cc(C(F)(F)F)nn5C)c4)nc3N2C)CC1 (stereo not drawn) [Compound 666, 7-(1-methoxycyclopropyl)-4,8-dimethyl-2-(((1-((1-methyl-3-(trifluoromethyl)-1H-pyrazol-5-yl)methyl)-1H-pyrazol-4-yl)methyl)amino)-7,8-dihydropteridin-6(511)-one]"
4,1000 to 5000,"Cc1nc(N[C@H]2CO[C@H](COc3cc(F)c(F)c(F)c3)C2)nc2c1NC(=O)[C@H](C)N2C [Compound 302, (7S)-4,7,8-trimethyl-2-(((3R,5S)-5-((3,4,5-trifluorophenoxy)methyl)tetrahydrofuran-3-yl)amino)-7,8-dihydropteridin-6(5H)-one]"
5,≥ 5000,"Cc1nc(NC2CC(C)(OCc3cc(F)c(F)c(F)c3)C2)nc2c1NC(=O)[C@H](C)N2C (stereo in doubt) [Compound 290, (7S)-4,7,8-trimethyl-2-((cis-3-methyl-3-((3,4,5-trifluorobenzyl)oxy)cyclobutyl)amino)-7,8-dihydropteridin-6(5H)-one]"

# Same assay, conditions: Homo sapiens, COLO 205, 5 h, Colo 205 TCF/LEF luciferase reporter, five hours after addition of compound; read-out: TCF reporter Colo205 IC50
row,Compound,IC50 [nM]
1,"C[C@H]1C(=O)Nc2cnc(N[C@H]3C[C@H](OCc4ccc(F)c(F)c4)C3)nc2N1C [Compound 265, (7S)-2-((trans-3-((3,4-difluorobenzyl)oxy)cyclobutyl)amino)-7,8-dimethyl-7,8-dihydropteridin-6(5H)-one]",300 to 1000
2,"Cc1nc(NC2CN(C(=O)[C@@H](C)c3ccccc3)C2)nc2c1NC(=O)[C@H](C(C)C)N2C [Compound 641, (S)-7-isopropyl-4,8-dimethyl-2-((1-((S)-2-phenylpropanoyl)azetidin-3-yl)amino)-7,8-dihydropteridin-6(5H)-one]",≥ 5000
3,"Cc1nc(NC2CN(C(=O)CC3CC(F)(F)C3)C2)nc2c1NC(=O)[C@H](C(C)C)N2C [Compound 606, (S)-2-((1-(2-(3,3-difluorocyclobutyl)acetyl)azetidin-3-yl)amino)-7-isopropyl-4,8-dimethyl-7,8-dihydropteridin-6(5H)-one]",300 to 1000
4,"Cc1nc(N[C@H]2C[C@@H](Cn3cnc(C(F)(F)F)c3)C2)nc2c1NC(=O)[C@H](C(C)C)N2C [Compound 680, (S)-7-isopropyl-4,8-dimethyl-2-((cis-3-((4-(trifluoromethyl)-1H-imidazol-1-yl)methyl)cyclobutyl)amino)-7,8-dihydropteridin-6(5H)-one]",300 to 1000
5,"Cc1nc(N[C@H]2CCc3nn(Cc4ccc(C(F)(F)F)nc4)cc32)nc2c1NC(=O)[C@H](C(C)C)N2C [Compound 521, (S)-7-isopropyl-4,8-dimethyl-2-(((S)-2-((6-(trifluoromethyl)pyridin-3-yl)methyl)-2,4,5,6-tetrahydrocyclopenta[c]pyrazol-4-yl)amino)-7,8-dihydropteridin-6(5H)-one]",1000 to 5000
6,"Cc1nc(N[C@@H]2CC[C@@H](N(C)c3ccc(C(F)(F)F)cc3)C2)nc2c1NC(=O)[C@H](C(C)C)N2C [Compound 504, (S)-7-isopropyl-4,8-dimethyl-2-(((1R,3R)-3-(methyl(4-(trifluoromethyl)phenyl)amino)cyclopentyl)amino)-7,8-dihydropteridin-6(5H)-one]",300 to 1000
7,"Cc1nc(NC2CN(C(=O)c3ncccn3)C2)nc2c1NC(=O)[C@H](C(C)C)N2C [Compound 640, (S)-7-isopropyl-4,8-dimethyl-2-((1-(pyrimidine-2-carbonyl)azetidin-3-yl)amino)-7,8-dihydropteridin-6(5H)-one]",≥ 5000
8,"Cc1cc(F)ncc1Cn1cc(CNc2nc(C)c3c(n2)N(C)[C@@H](C)C(=O)N3C)cn1 [Compound 205, (7S)-2-(((1-((6-fluoro-4-methylpyridin-3-yl)methyl)-1H-pyrazol-4-yl)methyl)amino)-4,5,7,8-tetramethyl-7,8-dihydropteridin-6(5H)-one]",300 to 1000
9,"Cc1nc(NC2CN(Cc3ccccc3)C2)nc2c1NC(=O)[C@H](C)N2C [Compound 244, (7S)-2-((1-benzylazetidin-3-yl)amino)-4,7,8-trimethyl-7,8-dihydropteridin-6(5H)-one]",≥ 5000
10,"Cc1nc(N[C@H]2C[C@H](Oc3ccc(C(F)(F)F)nc3)C2)nc2c1N(C)C(=O)[C@H](C)N2C [Compound 323, (7S)-4,5,7,8-tetramethyl-2-((trans-3-((6-(trifluoromethyl)pyridin-3-yl)oxy)cyclobutyl)amino)-7,8-dihydropteridin-6(5H)-one]",< 300
11,"Cc1nc(NCc2cnn(CCc3ccc(F)c(F)c3)c2)nc2c1NC(=O)[C@H](C)N2C [Compound 105, (7S)-2-(((1-(3,4-difluorophenethyl)-1H-pyrazol-4-yl)methyl)amino)-4,7,8-trimethyl-7,8-dihydropteridin-6(5H)-one]",< 300
12,"Cc1nc(N[C@H]2C[C@H](Nc3cnc(C(F)(F)F)cn3)C2)nc2c1NC(=O)[C@H](C(C)C)N2C [Compound 558, (S)-7-isopropyl-4,8-dimethyl-2-((trans-3-((5-(trifluoromethyl)pyrazin-2-yl)amino)cyclobutyl)amino)-7,8-dihydropteridin-6(5H)-one]",1000 to 5000
13,"C#CC[C@H]1C(=O)N(C)c2cnc(NCc3cnn(Cc4ccc(F)cc4)c3)nc2N1C [Compound 26, (7S)-2-(((1-(4-fluorobenzyl)-1H-pyrazol-4-yl)methyl)amino)-5,8-dimethyl-7-(prop-2-yn-1-yl)-7,8-dihydropteridin-6(5H)-one]",< 300

# Further lines, results first:
row,IC50 [nM],Compound
1,< 300,"Cc1nc(NCc2cnn(CCc3cc(F)c(F)c(F)c3)c2)nc2c1NC(=O)[C@H](C)N2C [Compound 123, (7S)-4,7,8-trimethyl-2-(((1-(3,4,5-trifluorophenethyl)-1H-pyrazol-4-yl)methyl)amino)-7,8-dihydropteridin-6(5H)-one]"
2,< 300,"CCN1C(=O)C2(CC2)N(CC)c2nc(NCc3cnn(Cc4ccc(F)cc4)c3)ncc21 [Compound 232, 5′,8′-diethyl-2′-(((1-(4-fluorobenzyl)-1H-pyrazol-4-yl)methyl)amino)-5′,8′-dihydro-6′H-spiro[cyclopropane-1,7′-pteridin]-6′-one]"
3,< 300,"Cc1nc(NCc2cnn(Cc3ccc(Cl)nc3)c2)nc2c1NC(=O)[C@H](CC(C)C)N2C [Compound 550, (S)-2-(((1-((6-chloropyridin-3-yl)methyl)-1H-pyrazol-4-yl)methyl)amino)-7-isobutyl-4,8-dimethyl-7,8-dihydropteridin-6(5H)-one]"
4,< 300,"Cc1nc(NCc2cnn(Cc3ccc(C4CC4)nc3)c2)nc2c1NC(=O)[C@H](C(C)C)N2C [Compound 442, (7S)-2-(((1-((6-cyclopropylpyridin-3-yl)methyl)-1H-pyrazol-4-yl)methyl)amino)-7-isopropyl-4,8-dimethyl-7,8-dihydropteridin-6(5H)-one]"
5,< 300,"Cc1nc(NCc2cnn([C@H](C)c3ccc(C(F)(F)F)nc3)c2)nc2c1NC(=O)[C@H](C)N2C [Compound 175, (7S)-4,7,8-Trimethyl-2-(((1-((R)-1-(6-(trifluoromethyl)pyridin-3-yl)ethyl)-1H-pyrazol-4-yl)methyl)amino)-7,8-dihydropteridin-6(5H)-one]"
6,< 300,"COc1c(F)ccc(Cn2cc(CNc3nc(C)c4c(n3)N(C)[C@@H](C)C(=O)N4)cn2)c1F [Compound 88, (7S)-2-(((1-(2,4-difluoro-3-methoxybenzyl)-1H-pyrazol-4-yl)methyl)amino)-4,7,8-trimethyl-7,8-dihydropteridin-6(5H)-one]"
7,< 300,"COC1(C2C(=O)Nc3c(C)nc(N[C@H]4C[C@@H](Cn5nccc5C(F)(F)F)C4)nc3N2C)CC1 (relative stereo) [Compound 676, 7-(1-methoxycyclopropyl)-4,8-dimethyl-2-((cis-3-((5-(trifluoromethyl)-1H-pyrazol-1-yl)methyl)cyclobutyl)amino)-7,8-dihydropteridin-6(5H)-one]"
8,< 300,"Cc1nc(N[C@H]2C[C@H](Oc3ccc(C(F)(F)F)cc3)C2)nc2c1NC(=O)[C@H](C)N2C [Compound 340, (7S)-4,7,8-trimethyl-2-((trans-3-(4-(trifluoromethyl)phenoxy)cyclobutyl)amino)-7,8-dihydropteridin-6(5H)-one]"
9,< 300,"Cc1nc(N[C@H]2C[C@H](Cn3nccc3C(F)(F)F)C2)nc2c1NC(=O)C1(CCOC1)N2C (relative stereo) [Compound 688, 4′,8′-dimethyl-2′-((trans-3-((5-(trifluoromethyl)-1H-pyrazol-1-yl)methyl)cyclobutyl)amino)-4,5,5′,8′-tetrahydro-2H,6′H-spiro[furan-3,7′-pteridin]-6′-one]"
10,< 300,"CO[C@H](C)[C@H]1C(=O)Nc2c(C)nc(N[C@H]3C[C@@H](Nc4cnc(C(F)(F)F)cn4)C3)nc2N1C [Compound 647, (S)-7-((R)-1-methoxyethyl)-4,8-dimethyl-2-((cis-3-((5-(trifluoromethyl)pyrazin-2-yl)amino)cyclobutyl)amino)-7,8-dihydropteridin-6(5H)-one]"

# Same assay, conditions: Homo sapiens, COLO 205, 5 h, Colo 205 cells with stably transfected TCF/LEF luciferase reporter; five hours after addition of compound; read-out: TCF reporter Colo205
row,IC50 [nM],Compound
1,≥ 5000,"COC(=O)N(Cc1cnn(Cc2ccc(C(F)(F)F)nc2)c1)c1nc(C)c2c(n1)N(C)[C@@H](C)C(=O)N2 [Compound 407, methyl (7S)-((1-((6-(trifluoromethyl)pyridin-3-yl)methyl)-1H-pyrazol-4-yl)methyl)(4,7,8-trimethyl-6-oxo-5,6,7,8-tetrahydropteridin-2-yl)carbamate]"

# Same assay, conditions: Homo sapiens, COLO 205, 5 h, R-isomer at C2 (corresponding to C2 S-isomer); Colo 205 TCF/LEF luciferase reporter, 5 h; read-out: TCF reporter Colo205 IC50
row,IC50 [nM],Compound
1,≥ 5000,CC[C@@H]1C(=O)Nc2cnc(NCc3cnn(Cc4ccc(C(F)(F)F)nc4)c3)nc2N1C(C)C [Compound I-1646]
